In patent publication US11464786B2, “CXCR7 inhibitors for the treatment of cancer” (CHEMOCENTRYX, INC., priority 2018, dated 2022):

Tests used:
Frs2β (+/+) CAFs = experiment: Migration (mobilization) of CAFs in co-culture; type: cell-based, mouse; conditions: single inhibitor alone, 100 μg/ml; data not shown
Protocol: FIG. 4A-I CXCL12 produced from precancerous Frs2β (+/+) mammary cells induce tumor spheres and migration of CAFs. (A) Schematic of co-culture of Frs2β (+/+) tumor cells to form spheres in the lower chamber with Frs2β (+/+) precancerous mammary epithelial cells in the upper chamber. (B) Representative images of tumor sphere formation in the presence of Frs2β (+/+) mammary epithelial cells treated with control IgG (400 nM) or IGF1 neutralizing antibody (Nab) (400 nM). N.T., not treated (without co-culture with mammary epithelial cells). Scale bar: 100 ∝μ. (C) Quantification of tumor sphere-forming efficiency. Results are shown as means±SEM. n=4. ***p<0.001, **p<0.01. (D) Schematic of co-culture of Frs2β (+/+) or Frs2β (−/−) mammary cells in the lower chamber with Frs2β (+/+) or Frs2β (−/−) CAFs in the upper chamber. (E) Expression levels of Cxcl12 was compared between Frs2β (+/+) or Frs2β (−/−) mammary cells on the […] by qPCR. Results were shown as mean±SEM. n=6. * * *p<0.001. (F) Representative images of migrated Frs2β (+/+) CAFs co-cultured with Frs2β (+/+) or Frs2β (−/−) mammary cells in the […] for 24 hours. (G) Quantification of migrated Frs2β (+/+) CAFs. Results were shown as mean±SEM. n=4. **p<0.01. […] (I) Quantification of the migrated CAFs co-cultured with Frs2β (+/+) cancer cells for 24 hr. […]

Frs2β (+/+) mice = experiment: DHMEQ treatment in vivo: RelA localization and cytokine transcripts in precancerous mammary tissues; design: species or system mouse; conditions: 10 μg/g intraperitoneally once a day for 3 weeks
Text: (§1) FIG. 5A-K FRS2β-dependent increase in activation of AKT-NFκB increases the production of IGF1 and CXCL12, promoting tumorigenesis. (A) Schematic of DHMEQ treatment of cultured Frs2β (+/+) precancerous mammary epithelial cells in vitro. (B) Expression levels of Igf1, Cxcl12, and IκBα in Frs2β (+/+) precancerous mammary epithelial cells treated with the indicated concentration of DHMEQ were compared by qPCR. Results are shown as means±SEM. n=4. **p<0.01. (C) Immunoblotting analysis of the indicated proteins in the lysate of Frs2β (+/+) or Frs2β (−/−) precancerous mammary tissues. Actin was used as a loading control. (D) Immunoblotting analysis of cytoplasmic and nuclear expression levels of the indicated proteins (control as a nuclear protein) in the lysate of Frs2β (+/+) or Frs2β (−/−) mammary tissues. PARP1 was used as a representative protein in nucleus. Actin was used as a loading control. (E) Immunoblotting analysis of the indicated proteins in the lysate of Frs2β (+/+) or Frs2β (−/−) mammary tissues. Actin was used as a loading control. (F) Schematic of DHMEQ treatment of Frs2β (+/+) mice in vivo. The mice were intraperitoneally injected with 10 μg/g DHMEQ once a day for 3 weeks. (G) Immunohistochemical staining for Frs2β (+/+) mammary tissues with or without 3-week treatment with 10 μg/g DHMEQ, or Frs2β (−/−) mammary tissues, using antibodies against RelA. Scale bar: 50 ∝μ. (H) Expression levels of Igf1 and Cxcl12 in Frs2β (+/+) mammary tissues, with or without 3-week treatment with 10 μg/g DHMEQ. N.T., not treated. Results are shown as means±SEM. n=4. ***p<0.001 and **p<0.01 (I) Treatment of mice with a CXCR7 inhibitor and/or an IGF1 antibody reduces tumor volume. Frs2β (+/+) tumor sphere cells were inoculated into mammary fat pads of 8-week-old virgin female MMTV-neu (+)/Frs2β (+/+) mice. After 7 days, the mice were intraperitoneally injected with 0.1 μg/g IGF1 antibody (R&D Biosystems) once per week and/or 1 μg/g of AMD3100 (Sigma) one a day and 1.5 μg/g of Compound 1 once a day. […] Tumor volumes (J) and weights (K) were measured in mice treated as in (I). […]

[1] = tested on: Frs2β (+/+) precancerous mammary epithelial cells; experiment: qPCR of NFkB target gene expression in cultured precancerous mammary epithelial cells; type: cell-based, mouse; conditions: in vitro, dose-dependent
Text: as §1

| SMILES | mobilization of CAFs (Frs2β (+/+) CAFs) | expression of Cxcl12 transcripts in precancerous mammary tissues (Frs2β (+/+) mice) | expression of Igf1 transcripts in precancerous mammary tissues (Frs2β (+/+) mice) | number of Frs2β (+/+) precancerous luminal cells harboring RelA in the nucleus (Frs2β (+/+) mice; immunohistochemistry) | expression of Cxcl12 [1] | expression of Igf1 [1] | expression of IkBa [1] |
| --- | --- | --- | --- | --- | --- | --- | --- |
| c1cc(CN2CCCNCCNCCCNCC2)ccc1CN1CCCNCCNCCCNCC1 [AMD3100] | did not observe significant effects |  |  |  |  |  |  |
| CC(C)c1cc(N2CCCN(Cc3csc(-c4ccccc4)n3)CC2)c2ncccc2c1 [Compound 1] | did not observe significant effects |  |  |  |  |  |  |
| O=C(NC1=CC(=O)[C@H]2O[C@H]2[C@H]1O)c1ccccc1O [DHMEQ] |  | inhibited | inhibited | dramatically decreased | inhibited | inhibited | inhibited |
